{"source": "patent US6365621B1", "about": "“Remedies or preventives for intractable epilepsy” (Pharmaceutical Co., Ltd., priority 1998, dated 2002)", "origin": "cited, not measured here", "tested_on": "kainate-induced amygdala seizures", "conditions": "high concentration; cited from earlier work", "data": [{"smiles": "NS(=O)(=O)Cc1noc2ccccc12", "note": "[zonisamide]", "values": [{"measurement": "Suppression of status epilepticus of kainate-induced amygdala seizure in acute phase", "value": "proven suppression effect"}]}]}
